From patent US12421210B2, “Fused bicyclic heterocycles as therapeutic agents” (NEW YORK UNIVERSITY, priority 2018, dated 2025)
Read-outs that look alike come from different tables or passages of the source.

Target: human NAMPT enzyme (His-hNAMPT) (Homo sapiens (Human), UniProt P43490)
Experiment: NAMPT enzymatic inhibition assay (fluorescence, NADH product)
Format: biochemical
[1] = [BPS], read-out: NAMPT IC50 (μM) [BPS]
[2] = [HDB], read-out: NAMPT IC50 (μM) [HDB]

Chain of human NAMPT enzyme (His-hNAMPT) (P43490 whole entry): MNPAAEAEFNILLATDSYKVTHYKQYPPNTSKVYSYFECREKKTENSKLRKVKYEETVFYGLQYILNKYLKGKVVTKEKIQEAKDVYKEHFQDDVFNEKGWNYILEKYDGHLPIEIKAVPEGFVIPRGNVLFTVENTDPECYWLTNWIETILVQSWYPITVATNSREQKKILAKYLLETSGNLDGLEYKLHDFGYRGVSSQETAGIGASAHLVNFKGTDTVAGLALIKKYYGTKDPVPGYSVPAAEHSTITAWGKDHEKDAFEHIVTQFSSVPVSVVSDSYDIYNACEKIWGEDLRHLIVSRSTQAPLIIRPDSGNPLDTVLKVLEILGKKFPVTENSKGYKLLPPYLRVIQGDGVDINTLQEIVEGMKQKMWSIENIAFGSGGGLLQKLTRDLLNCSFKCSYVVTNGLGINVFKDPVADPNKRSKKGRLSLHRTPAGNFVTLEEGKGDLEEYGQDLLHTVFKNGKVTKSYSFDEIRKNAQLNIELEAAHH

SMILES	IC50 [1] [µM]	IC50 [2] [µM]
O=C(NCC[C@@H]1[C@H]2CN(C(=O)Nc3ccccc3)C[C@@H]12)c1ccc2nccn2c1 [Example 65, N-(2-((1R,5S,6s)-3-(phenylcarbamoyl)-3-azabicyclo[3.1.0]hexan-6-yl)ethyl)imidazo[1,2-a]pyridine-6-carboxamide]	1 to 29	
O=C(NCC[C@@H]1[C@H]2CN(C(=O)c3ccc(F)cc3)C[C@@H]12)c1cc2ccncc2o1 [Example 97, N-(2-((1R,5S,6s)-3-(4-fluorobenzoyl)-3-azabicyclo[3.1.0]hexan-6-yl)ethyl)furo[2,3-c]pyridine-2-carboxamide]	0.01 to 0.49	
O=C(/C=C/c1cccnc1)NCC[C@@H]1[C@H]2CN(Cc3ncccn3)C[C@@H]12 [Example 294, (E)-3-(Pyridin-3-yl)-N-(2-((1R,5S,6s)-3-(pyrimidin-2-ylmethyl)-3-azabicyclo[3.1.0]hexan-6-yl)ethyl)acrylamide]		0.01 to 0.49
Cc1ccccc1N1C[C@@H]2[C@@H](CCNC(=O)/C=C/c3cccnc3)[C@@H]2C1 [Example 132, (E)-3-(pyridin-3-yl)-N-(2-((1R,5S,6s)-3-(o-tolyl)-3-azabicyclo[3.1.0]hexan-6-yl)ethyl)acrylamide]	0.01 to 0.49	
CCN(CC)C(=O)COc1ncc(F)c(N2C[C@@H]3[C@@H](CCNC(=O)/C=C/c4cccnc4)[C@@H]3C2)n1 [Example 329, (E)-N-(2-((1R,5S,6s)-3-(2-(2-(diethylamino)-2-oxoethoxy)-5-fluoropyrimidin-4-yl)-3-azabicyclo[3.1.0]hexan-6-yl)ethyl)-3-(pyridin-3-yl)acrylamide]		0.01 to 0.49
CC(c1cccc(F)c1)N1C[C@@H]2[C@@H](CCNC(=O)/C=C/c3cccnc3)[C@@H]2C1 (stereo partly drawn) [Example 323, (E)-N-(2-((1R,5S,6s)-3-(1-(3-fluorophenyl)ethyl)-3-azabicyclo[3.1.0]hexan-6-yl)ethyl)-3-(pyridin-3-yl)acrylamide]		< 0.01
O=C(NCC[C@@H]1[C@H]2CN(C(=O)N3CCCC3)C[C@@H]12)c1cc2ccncc2o1 [Example 70, N-(2-((1R,5S,6s)-3-(pyrrolidine-1-carbonyl)-3-azabicyclo[3.1.0]hexan-6-yl)ethyl)furo[2,3-c]pyridine-2-carboxamide]	0.01 to 0.49	
O=C(/C=C/c1cccnc1)NCC[C@@H]1[C@H]2CN(c3ccccc3)C[C@@H]12 [Example 117, (E)-N-(2-((1R,5S,6s)-3-phenyl-3-azabicyclo[3.1.0]hexan-6-yl)ethyl)-3-(pyridin-3-yl)acrylamide]	0.01 to 0.49	
O=C(/C=C/c1cccnc1)NCC[C@H]1[C@@H]2CN(c3ccccc3)C(=O)[C@H]12 (racemic) [Example 256 racemic, (E)-N-(2-((1R,5S,6S)-2-oxo-3-phenyl-3-azabicyclo[3.1.0]hexan-6-yl)ethyl)-3-(pyridin-3-yl)acrylamide and (E)-N-(2-((1S,5R,6R)-2-oxo-3-phenyl-3-azabicyclo[3.1.0]hexan-6-yl)ethyl)-3-(pyridin-3-yl)acrylamide]	0.01 to 0.49	0.01 to 0.49
O=C(NCC[C@@H]1[C@H]2CN(C(=O)c3ccccc3)C[C@@H]12)c1cc2ccncc2o1 [Example 30, N-(2-((1R,5S,6s)-3-benzoyl-3-azabicyclo[3.1.0]hexan-6-yl)ethyl)furo[2,3-c]pyridine-2-carboxamide]	0.01 to 0.49	0.01 to 0.49
O=C(/C=C/c1cccnc1)NCC[C@@H]1[C@H]2CN(c3cnccn3)C[C@@H]12 [Example 177, (E)-N-(2-((1R,5S,6s)-3-(pyrazin-2-yl)-3-azabicyclo[3.1.0]hexan-6-yl)ethyl)-3-(pyridin-3-yl)acrylamide]		0.01 to 0.49
O=C(/C=C/c1cccnc1)NCC[C@@H]1[C@H]2CN(c3ccc4ccccc4c3)C[C@@H]12 [Example 127, (E)-N-(2-((1R,5S,6s)-3-(naphthalen-2-yl)-3-azabicyclo[3.1.0]hexan-6-yl)ethyl)-3-(pyridin-3-yl)acrylamide]	0.01 to 0.49	
CC(c1ccncc1)N1C[C@@H]2[C@@H](CCNC(=O)/C=C/c3cccnc3)[C@@H]2C1 (stereo partly drawn) [Example 319, (E)-3-(pyridin-3-yl)-N-(2-((1R,5S,6s)-3-(1-(pyridin-4-yl)ethyl)-3-azabicyclo[3.1.0]hexan-6-yl)ethyl)acrylamide]		< 0.01
O=C(/C=C/c1cccnc1)NCC[C@@H]1[C@H]2CN(c3ncc4cc(F)ccc4n3)C[C@@H]12 [Example 167, (E)-N-(2-((1R,5S,6s)-3-(6-fluoroquinazolin-2-yl)-3-azabicyclo[3.1.0]hexan-6-yl)ethyl)-3-(pyridin-3-yl)acrylamide]		0.01 to 0.49
O=C(CCc1ccccn1)NCC[C@@H]1[C@H]2CN(c3nc(Cl)ncc3F)C[C@@H]12 [Example 218, N-(2-((1R,5S,6s)-3-(2-chloro-5-fluoropyrimidin-4-yl)-3-azabicyclo[3.1.0]hexan-6-yl)ethyl)-3-(pyridin-2-yl)propanamide]		0.01 to 0.49
O=C(/C=C/c1cccnc1)NCC[C@@H]1[C@H]2CN(c3ccc4cnccc4c3)C[C@@H]12 [Example 142, (E)-N-(2-((1R,5S,6s)-3-(isoquinolin-6-yl)-3-azabicyclo[3.1.0]hexan-6-yl)ethyl)-3-(pyridin-3-yl)acrylamide]		< 0.01
Nc1ccc(/C=C/C(=O)NCC[C@@H]2[C@H]3CN(S(=O)(=O)C4CCCC4)C[C@@H]23)cn1 [Example 48, (E)-3-(6-aminopyridin-3-yl)-N-(-2 ((1R,5S,6s)-3-(cyclopentylsulfonyl)-3-azabicyclo[3.1.0]hexan-6-yl)ethyl)acrylamide]	0.01 to 0.49	
NC(=O)c1ccnc(N2C[C@@H]3[C@@H](CCNC(=O)/C=C/c4cccnc4)[C@@H]3C2)n1 [Example 171, 2-((1R,5S,6s)-6-(2-((E)-3-(pyridin-3-yl)acrylamido)ethyl)-3-azabicyclo[3.1.0]hexan-3-yl)pyrimidine-4-carboxamide]		< 0.01
Nc1ccc(/C=C/C(=O)NCC[C@@H]2[C@H]3CN(C(=O)c4ccc(C(=O)O)cc4)C[C@@H]23)cn1 [Example 179, 4-((1R,5S,6s)-6-(2-((E)-3-(6-aminopyridin-3-yl)acrylamido)ethyl)-3-azabicyclo[3.1.0]hexane-3-carbonyl)benzoic acid]	1 to 29	0.5 to 0.99
Nc1ccc(/C=C/C(=O)NCC[C@@H]2[C@H]3CN(c4cccc(C(F)(F)F)c4)C[C@@H]23)cn1 [Example 202, (E)-3-(6-aminopyridin-3-yl)-N-(2-((1R,5S,6s)-3-(3-(trifluoromethyl)phenyl)-3-azabicyclo[3.1.0]hexan-6-yl)ethyl)acrylamide]		0.01 to 0.49
CC(c1ccccc1)N1C[C@@H]2[C@@H](CCNC(=O)/C=C/c3cccnc3)[C@@H]2C1 (stereo partly drawn) [Example 249, (E)-N-(2-((1R,5S,6s)-3-(1-phenylethyl)-3-azabicyclo[3.1.0]hexan-6-yl)ethyl)-3-(pyridin-3-yl)acrylamide]		0.01 to 0.49

Results, then the compound that gave them:

IC50 [1] [µM]	IC50 [2] [µM]	SMILES
0.01 to 0.49		Cc1nc(C)c(C(=O)N2C[C@@H]3[C@@H](CCNC(=O)c4cc(-c5cccnc5)on4)[C@@H]3C2)o1 [Example 111, N-(2-((1R,5S,6s)-3-(2,4-dimethyloxazole-5-carbonyl)-3-azabicyclo[3.1.0]hexan-6-yl)ethyl)-5-(pyridin-3-yl)isoxazole-3-carboxamide]
0.01 to 0.49		Nc1ccc(/C=C/C(=O)NCC[C@@H]2[C@H]3CN(C(=O)Oc4ccccc4)C[C@@H]23)cn1 [Example 40, (1R,5S,6s)-phenyl 6-(2-((E)-3-(6-aminopyridin-3-yl)acrylamido)ethyl)-3-azabicyclo[3.1.0]hexane-3-carboxylate]
0.01 to 0.49		CC(C)(C)OC(=O)N1C[C@@H]2[C@@H](CCNC(=O)c3cc4ccncc4s3)[C@@H]2C1 [Example 3]
	< 0.01	NC(=O)c1cnc(N2C[C@@H]3[C@@H](CCNC(=O)/C=C/c4cccnc4)[C@@H]3C2)nc1 [Example 174, 2-((1R,5S,6s)-6-(2-((E)-3-(pyridin-3-yl)acrylamido)ethyl)-3-azabicyclo[3.1.0]hexan-3-yl)pyrimidine-5-carboxamide]
0.01 to 0.49		CC(C)(C)OC(=O)N1C[C@@H]2[C@@H](CNC(=O)/C=C/c3cccnc3)[C@@H]2C1 [Example 232, (1R,5S,6s)-tert-butyl 6-(((E)-3-(pyridin-3-yl)acrylamido)methyl)-3-azabicyclo[3.1.0]hexane-3-carboxylate]
0.01 to 0.49		CC(C)(C)OC(=O)N1C[C@@H]2[C@H](C1)[C@H]2C(F)CNC(=O)/C=C/c1ccc(N)nc1 (stereo partly drawn) [Example 254, (1R,5S,6r)-tert-butyl 6-(2-((E)-3-(6-aminopyridin-3-yl)acrylamido)-1-fluoroethyl)-3-azabicyclo[3.1.0]hexane-3-carboxylate]
0.01 to 0.49		CC(C)(C)OC(=O)N1C[C@@H]2[C@H](C1)[C@H]2C(O)CNC(=O)/C=C/c1cccnc1 (stereo partly drawn) [Example 253, (1R,5S,6r)-tert-butyl 6-(1-hydroxy-2-((E)-3-(pyridin-3-yl)acrylamido)ethyl)-3-azabicyclo[3.1.0]hexane-3-carboxylate]
0.01 to 0.49		CC(C)(C)OC(=O)N1C[C@@H]2[C@@H](CCNC(=O)COc3cccnc3)[C@@H]2C1 [Example 2, (1R,5S,6s)-tert-butyl 6-(2-(2-(pyridin-3-yloxy)acetamido)ethyl)-3-azabicyclo[3.1.0]hexane-3-carboxylate]
< 0.01		CC(C)(C)OC(=O)N1C[C@@H]2[C@@H](CCNC(=O)/C=C/c3cccnc3)[C@@H]2C1 [Example 1, (1R,5S,6s)-tert-butyl 6-(2-((E)-3-(pyridin-3-yl)acrylamido)ethyl)-3-azabicyclo[3.1.0]hexane-3-carboxylate]
0.01 to 0.49		O=C(/C=C/c1cccnc1)NCC[C@@H]1[C@H]2CN(c3ncccn3)C[C@@H]12 [Example 123, (E)-3-(pyridin-3-yl)-N-(2-((1R,5S,6s)-3-(pyrimidin-2-yl)-3-azabicyclo[3.1.0]hexan-6-yl)ethyl)acrylamide]
0.01 to 0.49		Cc1ccncc1C(=O)N1C[C@@H]2[C@@H](CCNC(=O)/C=C/c3ccc(N)nc3)[C@@H]2C1 [Example 92, (E)-3-(6-aminopyridin-3-yl)-N-(2-((1R,5S,6s)-3-(4-methylnicotinoyl)-3-azabicyclo[3.1.0]hexan-6-yl)ethyl)acrylamide]
